Results from PMC4061029, “A Stable and Reproducible Human Blood-Brain Barrier Model Derived from Hematopoietic Stem Cells” (PLoS ONE, 2014).

Experiments:
[1] = system: CD34+-derived ECs co-cultured with pericytes; assay: Cell viability of ECs under Wnt antagonist; format: cell-based, human; conditions: co-culture with pericytes, 4 days
[2] = system: CD34+-derived ECs co-cultured with pericytes; assay: Abrogation of Wnt signaling: paracellular permeability of ECs co-cultured with pericytes; format: cell-based, human; conditions: co-culture with pericytes, 4 days, 0.1 or 1 µM, luminal side
Experimental: Prior to the experiments, HEPES-buffered Ringer’s solution (in some cases EBM-2 medium) was added to empty wells of a 12-well plate (Costar). Filter inserts, containing confluent monolayers of CD34^+-ECs, were subsequently placed in the 12-well plate, filled with compound solution containing the fluorescent integrity marker Lucifer Yellow (20 µM; Life Technologies), and then placed on an orbital shaker. After 1 h, filter inserts were withdrawn from the receiver compartment. Aliquots from the donor solution were taken at the beginning and at the end of the experiments and the fluorescence was quantified. At least three inserts with cells and three without cells were tested in each permeability measurement. Fluorescence detection was carried out on a Synergy H1 multiplates reader (Biotek) using the following excitation/emission wavelength (nm) settings: 432/538; 490/516; 542/570 for Lucifer yellow, Fluorescein Na and Cy3-Human Serum Albumin and Human IgG respectively.
For Wnt signaling experiments, mono- and co-culture systems were used. […]
Figure 6 Evaluation of Wnt signaling in the induction of BBB properties in ECs. […] After 4 days of coculture, the paracellular permeability and cell organization were evaluated. (D) Fluorescence microscopy images showing the expression of ZO-1 in untreated ECs or ECs treated with XAV 939 (1 µM) for 4 days. […]

[3] = system: iPSC-derived ECs with astrocytes; design: method as in PMID 24561821; conditions: cited from earlier work

Row | Compound | cell viability [1] | paracellular permeability of the EC monolayer to lucifer yellow [2] | TEER of the BBB model [3]
1 | Oc1nc(-c2ccc(C(F)(F)F)cc2)nc2c1CSCC2 [XAV-939] | did not affect | increased | 
2 | CC1=C(/C=C/C(C)=C/C=C/C(C)=C/C(=O)O)C(C)(C)CCC1 [retinoic acid] |  |  | up to 5000 Ω×cm^2
